Values of other authors in patent US20100003322A1, “ENTERIC COATED HYDROPHOBIC MATRIX FORMULATION” (priority 2008, published 2010).
Structures can show the parent of a compound that is named as a salt.

Settings: for water solubility: volume of water that dissolves 1 g: 1 g of drug in the stated ml of water; for solubility as described in the package insert: water, for gabapentin also basic and acidic aqueous solutions

| SMILES | water solubility: volume of water that dissolves 1 g [mL] | solubility as described in the package insert | water solubility: amount dissolved in 100 ml of water (in 100 ml of water) |
| --- | --- | --- | --- |
| CCCC(CCC)C(=O)[O-].[Na+] [sodium valproate, sodium 2-propylpentanoate] | 0.4 | – | – |
| NCC1(CC(=O)O)CCCCC1 [gabapentin, 1-(aminomethyl)cyclohexaneacetic acid] | – | freely soluble | – |
| COc1cccc(C2(O)CCCCC2CN(C)C)c1 (centres unmarked) [tramadol hydrochloride] | ~33 | – | – |
| CC[C@@H](C(N)=O)N1CCCC1=O [levetiracetam, (−)-(S)-α-ethyl-2-oxo-1-pyrrolidine acetamide] | – | very soluble | approximately 104 grams |
